Results taken from patent US10265307B2, “Thiazolecarboxamides and pyridinecarboxamide compounds useful as Pim kinase inhibitors” (Incyte Corporation, priority 2013, dated 2019).

Assays:
Format in all cases: biochemical
Pim-2 = Pim-2 (Homo sapiens (Human), UniProt Q9P1W9); experiment: Pim-2 kinase assay; settings: 1 mM ATP; read-out: Pim2 IC50
Pim-3 = Pim-3 (Homo sapiens (Human), UniProt Q86V86); experiment: Pim-3 kinase assay; settings: 1 mM ATP; read-out: Pim3 IC50
Method in brief: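 AlphaScreen-type assay: […] Pim-3 phosphorylates 0.05 μM biotin-BAD peptide with 1 mM ATP, 1 h at 25 °C, pH 7.5 Tris buffer with MgCl2 and DTT. EDTA stop with phospho-BAD (Ser112) antibody and donor/acceptor beads, 1 h dark incubation before reading.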

Pim-1 = Pim-1 (Homo sapiens (Human), UniProt P11309); experiment: Pim-1 kinase assay; settings: 1 mM ATP; read-out: Pim1 IC50
Pim-1, sequence (P11309 whole entry): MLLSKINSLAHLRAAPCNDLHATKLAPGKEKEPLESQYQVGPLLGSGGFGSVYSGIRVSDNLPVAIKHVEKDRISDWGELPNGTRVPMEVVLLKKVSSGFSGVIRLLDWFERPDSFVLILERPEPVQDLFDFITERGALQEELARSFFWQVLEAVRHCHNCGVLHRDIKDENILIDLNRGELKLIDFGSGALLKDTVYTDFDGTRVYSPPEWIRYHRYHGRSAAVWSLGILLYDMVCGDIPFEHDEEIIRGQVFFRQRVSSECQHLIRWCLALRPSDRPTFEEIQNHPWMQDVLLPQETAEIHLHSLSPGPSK
Description: Supplementation of the STOP buffer with beads and stopping the reactions were done under reduced light. Prior to the stopping reactions STOP buffer with beads was pre-incubated for 1 h in the dark at room temperature. After stopping the reactions, plates were incubated for 1 h in the dark at room temperature before reading on a PHERAstar FS plate reader (BMG Labtech) under reduced light.

Measured: IC50

Pim-2, sequence (Q9P1W9 whole entry): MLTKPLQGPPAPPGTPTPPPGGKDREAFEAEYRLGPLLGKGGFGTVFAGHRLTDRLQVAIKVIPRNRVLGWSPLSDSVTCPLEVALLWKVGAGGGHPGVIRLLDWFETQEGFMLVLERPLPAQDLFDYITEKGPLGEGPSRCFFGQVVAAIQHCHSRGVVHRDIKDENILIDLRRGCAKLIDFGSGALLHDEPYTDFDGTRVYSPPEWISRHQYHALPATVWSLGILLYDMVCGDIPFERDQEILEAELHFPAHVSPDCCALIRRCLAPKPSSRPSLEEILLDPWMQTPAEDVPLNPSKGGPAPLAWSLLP

COc1ccc(F)c(-c2nc(C(=O)Nc3cnc4c(c3N3C[C@H](C)C[C@H](N)C3)CCO4)ccc2F)c1F [Example 73, N-{4-[(3S,5R)-3-Amino-5-methylpiperidin-1-yl]-2,3-dihydrofuro[2,3-b]pyridin-5-yl}-6-(2,6-difluoro-3-methoxyphenyl)-5-fluoropyridine-2-carboxamide]
≤ 100 nM: all assays above

COc1ccc(F)c(-c2nc(C(=O)Nc3cnc4c(c3N3C[C@@H](N)[C@H](O)[C@@H](C)C3)CCO4)ccc2F)c1F [Example 74, N-{4-[(3R,4R,5S)-3-Amino-4-hydroxy-5-methylpiperidin-1-yl]-2,3-dihydrofuro[2,3-b]pyridin-5-yl}-6-(2,6-difluoro-3-methoxyphenyl)-5-fluoropyridine-2-carboxamide]
≤ 100 nM: all assays above

C[C@H]1CN(c2c(NC(=O)c3nc(-c4c(F)cccc4F)sc3N)cnc3c2CCO3)C[C@@H](N)[C@@]1(C)O [Example 75, 5-Amino-N-{4-[(3R,4S,5S)-3-amino-4-hydroxy-4,5-dimethylpiperidin-1-yl]-2,3-dihydrofuro[2,3-b]pyridin-5-yl}-2-(2,6-difluorophenyl)-1,3-thiazole-4-carboxamide]
≤ 100 nM: all assays above

C[C@H]1CN(c2c(NC(=O)c3nc(-c4c(F)cccc4F)sc3N)cnc3c2CCO3)C[C@@H](N)[C@]1(C)O [Example 76, 5-Amino-N-{4-[(3R,4R,5S)-3-amino-4-hydroxy-4,5-dimethylpiperidin-1-yl]-2,3-dihydrofuro[2,3-b]pyridin-5-yl}-2-(2,6-difluorophenyl)-1,3-thiazole-4-carboxamide]
≤ 100 nM: all assays above
